The text below walks through data of patent US4088778A, “Method for the treatment of hypertension” (priority 1975, dated 1978).

One series can be described thus: Acute toxicity on mice. In kind it is in vivo. An excerpt: (§1) Toxicities of TN and TA will now be described.
The nature of a further series: Acute toxicity on rats. The series is classed as in vivo. Conditions: for LD50: rats.
Source text: as §1

A short description of series [1]: Subacute and chronic toxicities. The series is classed as in vivo. The note with it: rats 100 to 1000 mg/Kg and beagles 100 mg/Kg daily, 3 or 6 months. The method, then:
(B) Subacute and Chronic Toxicities:
TN and TA were separately administered to rats and beagles at daily doses of 100 to 1000 mg/Kg and 100 mg/Kg, respectively, continuously for 3 or 6 months.

Series [2] can be described thus: Teratogenetic property test. In kind it is in vivo, pregnant mice or pregnant rats. Conditions: orally, 100 to 1200 mg/Kg. The text has this:
(C) Teratogenetic Property Test:

Series [3] can be described thus: Experiment on young SHR (rats of spontaneous hypertension). In kind it is in vivo, rats (7-week-old female SHR). The note with it: 88 mg/kg TA. The method, then: Experiments were conducted by using two classes of rats of spontaneous hypertension (hereinafter referred to as "SHR"; provided by Nippon Rat K.K.) differing in the age. In the first experiment, 9-month-old chronic […] SHR (hereinafter referred to as "old SHR"), and in the second experiment, 7-week-old SHR in which hypertension was advancing (hereinafter referred to as "young SHR") was used.
(B) Experiment on Young SHR:
72 of 7-week-old female SHR (having a body weight of 130 to 175 g) were divided into 9 cages, each consisting of 8 rats. Service water was given as drinking water to rats of two cages among these 9 cages, and these rats were compared with other rats which were given a 1% aqueous solution of sodium chloride as drinking water. In each of the […] cages of rats to which the sodium chloride solution was given, no agent was administered to 2 of 8 rats, 20 mg/Kg of TN was administered to another 2 rats, 100 mg/Kg of TN was administered to still another 2 rats, and 88 mg/Kg of TA was administered to the remaining 2 rats.
After 2 weeks' feeding with the sodium chloride solution, administration was conducted once a day. Within 2 weeks from the start of administration,3 rats in the Control (non-administered) group, one rat in the 20 mg/Kg TN administered group, 3 rats in the 100 mg/Kg TN administered group, 3 rats in the 88 mg/Kg TA administered group and 4 rats in the service water given group were dead. In view of the body weight decrease and the snivel secretion and from the results of autopsy, it was judged that each of them died of pneumonia. The rats that died prior to initiation of the administration were not taken in account in evaluating the experimental results.

A short description of series [4]: Hypotensive effect on experimental hypertension caused by DOCA. The series is classed as in vivo, male wistar rats. The protocol:
(A) Hypotensive effect on experimental hypertension caused by administration of desoxycorticosterone (hereinafter referred to as "DOCA"):
Right kidneys were removed from 6-week-old male wistar rats, and a 1% aqueous solution of sodium chloride was given as drinking water and 12.5 mg/Kg of DOCA was intramuscularly injected every week. The change of the blood pressure was examined over a period of 6 weeks.
48 rats, each having one kidney removed, were divided into 6 groups, each consisting of 8 rats, and each group was placed in a cage. With respect to each group, a gum arabic solution was administered to 2 rats as non-administered control animals. 20 mg/Kg of TN was administered once a day to each of two rats among the remaining 6 rats, and 100 mg/Kg of TN was administered once a day to each of two rats among the remaining 4 rats. 88 mg/Kg of TA was administered once a day to each of the remaining two rats. TN and TA were administered in the form of a suspension in gum arabic. The blood pressure was measured by a Shimazu type systolic pressure continuous recording apparatus detecting pulse waves of rats taken in a thermostat fixed box maintained at 30° C.

For series [5] the following is noted: cited from earlier work.

Structures are written as SMILES. Where two headings read alike, the source gives them in different places. Where only a bound is given, the exact number is not on record here.

Turning to `CC(=O)Oc1c(C)c(C)c2c(c1C)CCC(C)(CCCC(C)CCCC(C)CCCC(C)C)O2` (racemic) [TA, dl-α-tocopheryl acetate], the median lethal dose (LD50) (commonly the dose expected to kill half of the subjects tested) in the series “Acute toxicity on mice” (I.M., female) is above 15000 mg/kg; in “Acute toxicity on mice” (I.V., female), above 1000 mg/kg; in “Acute toxicity on mice” (P.O., female) it was above 20000 mg/kg; in “Acute toxicity on mice” (S.C., female), above 20000 mg/kg; in “Acute toxicity on mice” (mouse, in vivo, im, I.M., male, read-out: LD50), above 15000 mg/kg; in the series “Acute toxicity on mice” (mouse, in vivo, ip, I.P., male, read-out: LD50), above 4000 mg/kg. Moreover, the median lethal dose (LD50) in “Acute toxicity on mice” (mouse, in vivo, iv, I.V., male, read-out: LD50) was above 1000 mg/kg; in the series “Acute toxicity on mice” (mouse, in vivo, po, P.O., male, read-out: LD50), above 20000 mg/kg; in “Acute toxicity on mice” (mouse, in vivo, sc, S.C., male, read-out: LD50) it was above 20000 mg/kg; in the series “Acute toxicity on rats” (rat, in vivo, im, I.M., male, read-out: LD50) it was above 10000 mg/kg; in the series “Acute toxicity on rats” (rat, in vivo, ip, I.P., male, read-out: LD50) it was above 2000 mg/kg; in “Acute toxicity on rats” (rat, in vivo, iv, I.V., male, read-out: LD50) it was above 250 mg/kg. Also, the median lethal dose (LD50) in “Acute toxicity on rats” (rat, in vivo, po, P.O., male, read-out: LD50) is above 15000 mg/kg; in the series “Acute toxicity on rats” (rat, in vivo, sc, S.C., male, read-out: LD50) it was above 15000 mg/kg; in the series “Acute toxicity on rats” (I.M., female), above 10000 mg/kg; in the series “Acute toxicity on rats” (I.V., female) it was above 250 mg/kg; in “Acute toxicity on rats” (P.O., female), above 15000 mg/kg; in the series “Acute toxicity on rats” (S.C., female) it was above 15000 mg/kg. Also, the “animals killed in acute toxicity test” value in the series “Acute toxicity on rats” (mice and rats, maximum amount that can be administered) was “no test animal was killed”. Further, the deaths result in series [1] is on record as “no deaths”. Moreover, the “haematological, haemetobiological and histological surveys” value in series [1] was “no manifestation of the toxicity was observed”. In addition, the “inhibition of the body weight” value in series [1] was “inhibition of the body weight was not observed”. In addition, the “influences on mother animals, embryos and newborn babies” value in series [2] was “no influences were observed”. Moreover, the teratogenetic property result in series [2] is given as “no teratogenetic property”. In addition, the “dead rats within 6 weeks from the start of the administration” value in series [3] (among 11 rats, control 5 among 11) came out at 3 rats. The “dead rats within 2 weeks from the start of administration” value in series [3] (judged pneumonia, control 3) amounted to 3 rats. In addition, in series [4] (88 mg/kg of TA once a day, among 12 rats (control 9 among 11)), the “number of rats with blood pressure elevated to 170 mm Hg or higher” value is listed as 4 rats. For the same molecule, the “hypotensive effect, overall conclusion from pharmacological tests on animals” value in series [4] (DOCA rats, old SHR, young SHR) is recorded as “have a hypotensive effect”.
As to `NNc1nncc2ccccc12` [Hydralazine], in series [5] (prior art), the “effect on the heart” value was “increases the amount of blood fed to the heart and the pulse frequency and thus increases the load on the heart”; the hypotensive activity entry is given as “high hypotensive activity”; the undesirable side effects result was “multiple arthritis resembling rheumatic arthritis and lupus erythematosus”.
As for `COC(=O)[C@H]1[C@H]2C[C@@H]3c4[nH]c5cc(OC)ccc5c4CCN3C[C@H]2C[C@@H](OC(=O)c2cc(OC)c(OC)c(OC)c2)[C@@H]1OC` [Reserpine], in series [5] (prior art), the undesirable side effects entry is “inhibition of the central nervous system, such as asthenic feeling”.
On to `NS(=O)(=O)c1cc2c(cc1Cl)NCNS2(=O)=O` [hydrochlorothiazide], for which, in series [5] (in vivo), the undesirable side effects result was “hypokalemia, hypercirycemia and manifestation of latent diabetes”. In addition, the hypotensive activity entry in series [5] (prior art) is reported as “moderate hypotensive activity”.
Regarding `C[C@](N)(Cc1ccc(O)c(O)c1)C(=O)O` [l-α-Methyl Dopa], in series [5] (prior art), the hypotensive activity entry is reported as “high hypotensive activity”; the undesirable side effects result was “mammary hypertrophy, paraesthesia, nightmare and Parkisonism”.
In the case of `CC(COc1ccccc1)N(CCCl)Cc1ccccc1` (stereo not shown) [phenoxybenzamine], the undesirable side effects entry in series [5] (prior art) is “orthostatic hypotensive asthenia and tachycardia”.
